Reference: patent publication US4130650A, “Antiarrhythmic method of use” (priority 1976, dated 1978)
Converted amounts (≈) assume the structure as drawn. Structures can show the parent of a compound that is named as a salt.

Tests used:
[1] = test system: adrenalin-induced ventricular arrhythmia in dogs; experiment: Prevention of ventricular arrhythmia provoked by adrenalin in dogs under halothane anesthesia; format: in vivo, dog; conditions: Canis lupus familiaris, iv, 5 min, i.v., 4 dogs, adrenalin 5 minutes after compound, read-out: mean dose that abolished the adrenalin arrhythmias
Description: (§1) 2. prevention of ventricular arrhythmia provoked by adrenalin in dogs under halothane anesthesia
(§2) According to the method described by ALLEN, et al in Brit. J. Pharmacol. 45, 561 (1972), dogs were anesthetized by subcutaneous injection of 0.5 mgm/kg morphine sulfate and by intravenous injection of 20 mg/kg pentobarbitone. The animals were given artificial respiration with room air from a Starling pump via a cuffed endotracheal tube. The electrocardiogram (lead II) was recorded on a Devices recorder (Type M 8 or M 4). The test compound was injected through a polyethylene catheter inserted into a foreleg vein.
(§3) Observations were made on 4 dogs. The artificial respiration was continued adding 1% halothane to the room air. 15 minutes later adrenalin was injected at doses of 0.2 and increased to 0.4, 0.8, 1.2, 1.6, 2.0, 2.4 and 2.8 […], at intervals of 7 to 10 minutes between each dose, until ventricular tachycardia had been produced. After the arrhythmia-producing dose of adrenalin had been established, compound A was injected intravenously. 5 minutes later the adrenalin injection was repeated, using the same dose. The dose of the test compound was increased to obtain the minimum dose which prevented the adrenalin-induced arrhythmia.

[2] = Acute i.v. toxicity in mice; conditions: mouse, in vivo, iv, tail vein, LITCHFIELD and WILCOXON, read-out: median lethal dose (LD50)
Description: 4. Acute i.v. toxicity in mice
Mice of both sexes having a body weight of 20 to 25 gm were used. The test compound was dissolved in distilled water and injected into the mice with a volume of 0.1 ml/10 gm body weight by way of a tail vein. Each dose was injected into 10 mice. The number of dead animals was determined and the median lethal dose (LD50) was calculated using the method of LITCHFIELD and WILCOXON [J. Pharmac. Exp. Ther. 96, 99 (1949)].

[3] = test system: isolated auricles of guinea pigs; experiment: Reduction of the maximum driving frequency (MDF) of isolated auricles of guinea pigs; format: cell-based, guinea pig; conditions: Cavia porcellus; isolated left auricles; tyrode solution, 37° C., pH 7.4; cumulative addition; MDF 5 and 10 minutes after adding; read-out: EC50: concentration causing a 50% decrease of the maximum driving frequency (MDF)
Description: 1. reduction of the maximum driving frequency of isolated auricles of guinea pigs The tests were carried out using an adaption of the method of DAWES (Brit. J. Pharmacol.1, 90, 1946). Guinea pigs of both sexes, body weight between 300 and 400 gm were killed by a blow on the neck. The left auricles were quickly removed and put into an organ bath of 100 ml. The organ bath was filled with tyrode solution, which was infused with a mixture of 98% of oxygen and 2% of carbon dioxide. […] The auricles were stimulated with square wave impulses of 1 millisecond duration at a voltage 200% higher than the threshold voltage and a frequency of 1 Hz (Hugo Sachs, Stimulator II). A weight of 0.4 gm was applied to the auricles and the contractions were continuously measured isometrically by means of a force displacement transducer (Grass Ft 03) and recorded on a Grass polygraph (model 5). After sufficient equilibration time (15 min.) the stimulation rate was increased every 10 seconds by 1 Hz until the maximum driving frequency (MDF) was reached. The MDF is defined as the stimulation frequency, where every stimulation is still answered by a contraction. The MDF was determined before and 5 and 10 minutes after adding the test compound. The test compound was added cumulatively to the organ bath. The concentration causing a 50% decrease of the MDF (EC50) was calculated from a dose-response curve.

[4] = test system: ouabain-induced ventricular arrhythmia in dogs; experiment: Suppression of ouabain-induced ventricular arrhythmia in dogs; format: in vivo, dog; conditions: 12 dogs
Description: (§4) 3. Suppression of ouabain-induced ventricular arrhythmia in dogs
(§5) According to the method described by ALLEN, et al. (supra), dogs were anesthetized by subcutaneous injection of morphine sulfate (0.5 mgm/kg), followed by intravenous injection of pentobarbitone (20 mgm/kg). The animals were given artificial respiration with room air from a Starling pump via a cuffed endotracheal tube. The electrocardiogram (lead II) was recorded on a Devices recorder (Type M8 or M 4). Test compound administration was through a polyethylene catheter inserted in a foreleg vein.
(§6) Observations were made on 12 dogs. Ventricular tachycardia was produced by intravenous injection of ouabain, first 40 mgm/kg, followed after 30 minutes by 20 mgm/kg and by 10 mgm/kg every 15 minutes until ventricular tachycardia was established. 10 minutes after the last ouabain injection, the test compound was continuously infused intravenously from a motor-driven syringe at a rate of 0.2 mgm/kg per minute, until sinus rhythm returned. The mean dose of ouabain to produce ventricular tachycardia was 60 ± 2.8 mg/kg. The mean dose of compound A required to convert the ventricular tachycardia to sinus rhythm was 0.76 ± 0.18 mg/kg i.v.

anesthetized dogs = experiment: animal or person; format: in vivo, dog
Description: as §1, §2, §3, §4, §5, §6
(§7) The lowest therapeutic dose was 0.1 mgm/kg i.v., which is about 100 to 200 times smaller than the mean toxic dose.

in vivo = format: in vivo, dog; conditions: dog, in vivo, iv
Description: as §1, §2, §3, §4, §5, §6, §7

SMILES | EC50 [3] [µg/mL] | further results
CN(C)CCOc1ccccc1C=Cc1ccccn1.Cl [A, 2-[o-(β-Dimethylamino-ethoxy)-styryl]-pyridine monohydrochloride] | 3.8 | minimal effective dose [1]: 0.18 ± 0.04 mg/kg; LD50 [2]: 25 mg/kg; minimal effective dose ([4]; Canis lupus familiaris, iv, i.v. infusion 0.2 mgm/kg per minute, ouabain-induced tachycardia, read-out: mean dose required to convert the ventricular tachycardia to sinus rhythm): 0.76 ± 0.18 mg/kg; minimal effective dose (anesthetized dogs; Canis lupus familiaris, iv, read-out: lowest therapeutic dose): 0.1 mg/kg; antiarrhythmic effectiveness (in words) (anesthetized dogs; anesthetized dogs): very effective antiarrhythmic compound; therapeutic ratio (in words) (anesthetized dogs; dog, in vivo, iv): excellent therapeutic ratio; selectivity ratio (in vivo): 100 to 200
CNCCOc1ccccc1C=Cc1ccccn1 [B, 2-[0-(β-Methylamino-ethoxy)-styryl]-pyridine dihydrochloride] | 8.3 | 
C(=Cc1ccccc1OCCN1CCOCC1)c1ccccn1 [C, 2-[0-(β-Morpholino-ethoxy)-styryl]-pyridine dihydrochloride] | 33 | 
Cc1cccc(C=Cc2ccccc2OCCN(C)C)n1.Cl [Compound E, 2-[o-(β-Dimethylamino-ethoxy)-styryl]-6-methyl-pyridine hydrochloride] | 6.3 | 
CC(=Cc1ccccc1OCCN(C)C)c1ccccn1 [D, 1-[o-(β-Dimethylamino-ethoxy)-phenyl]-2-(pyridyl-2)-propene-1 monohydrochloride] | 3.1 | 
CN(C)CCOc1ccccc1C=Cc1ccc2ccccc2n1.Cl [F, 2-[o-(β-Dimethylamino-ethoxy)-styryl]-quinoline hydrochloride] | 10 | 
CN(C)CCOc1ccccc1C=Cc1nc2ccccc2n1C.Cl.Cl [G, 2-[o-(β-Dimethylamino-ethoxy)-styryl]-1-methyl-benzimidazole dihydrochloride] | 9 | 
CN(C)CCOc1ccccc1C=Cc1cnccn1 [H, 2-[o-(β-Dimethylamino-ethoxy)-styryl] -pyrazine] | 25 (≈ 92.8 µM) | 
CN(C)CCOc1ccccc1C=Cc1ccccc1.Cl [I, 2-(2-Dimethylamino-ethoxy)-stilbene hydrochloride] | 10 | 
C[C@@H]1O[C@@H](O[C@H]2C[C@@H](O)[C@]3(CO)[C@H]4[C@H](O)C[C@]5(C)[C@@H](C6=CC(=O)OC6)CC[C@]5(O)[C@@H]4CC[C@]3(O)C2)[C@H](O)[C@H](O)[C@H]1O [ouabain, reference compound] |  | mean dose of ouabain to produce ventricular tachycardia ([4]; intravenous): 60 ± 2.8 mg/kg
